From patent publication US20030225152A1, “3-(Arylamino)methylene-1, 3-dihydro-2h-indol-2-ones as kinase inhibitors” (priority 2001, published 2003)

Columns and labels:
[1] = target: T1, cytoplasmic domain of the human VEGF receptor (VEGFR-2) (Homo sapiens, UniProt P35968); assay: KDR Assay; assay type: biochemical; settings: His-VEGFR-2; 3.6 μM ATP
T1 construct: The cytoplasmic domain of the human VEGF receptor (VEGFR-2) was expressed as a Histidine-tagged fusion protein; Histidine tag
Procedure, shortened: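 His-tagged human VEGFR-2 cytoplasmic domain from baculovirus-infected insect cells, acting on poly-Glu-Tyr (4:1)-coated plates with 3.6 μM ATP in Hepes pH 7.4 with MgCl2/MnCl2 and 5% final DMSO, 10 min at 25 °C. Phosphotyrosine detected by peroxidase-conjugated antibody ELISA at 492 nm; IC50 from blank-subtracted OD versus concentration.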

[2] = tested on: VEGF induced increases in intracellular calcium levels in HUVEC (human umbilical vein endothelial cells); assay: VEGF Stimulated Ca++ Signal in vitro (FLIPR); assay type: cell-based; settings: VEGF 5 ng/mL; for IC50: 0.01 to 10.0 μM
Procedure, shortened: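 HUVEC loaded with Fluo-4 (45 min, 37° C.), washed, then pre-incubated 30 min with compound (10 μM single dose or 0.01–10.0 μM; 0.1% DMSO) before 5 ng/mL VEGF. Fluorescence at 516 nm read by FLIPR; IC50 from % inhibition of max-min VEGF response.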

T1 sequence (P35968 786-1356): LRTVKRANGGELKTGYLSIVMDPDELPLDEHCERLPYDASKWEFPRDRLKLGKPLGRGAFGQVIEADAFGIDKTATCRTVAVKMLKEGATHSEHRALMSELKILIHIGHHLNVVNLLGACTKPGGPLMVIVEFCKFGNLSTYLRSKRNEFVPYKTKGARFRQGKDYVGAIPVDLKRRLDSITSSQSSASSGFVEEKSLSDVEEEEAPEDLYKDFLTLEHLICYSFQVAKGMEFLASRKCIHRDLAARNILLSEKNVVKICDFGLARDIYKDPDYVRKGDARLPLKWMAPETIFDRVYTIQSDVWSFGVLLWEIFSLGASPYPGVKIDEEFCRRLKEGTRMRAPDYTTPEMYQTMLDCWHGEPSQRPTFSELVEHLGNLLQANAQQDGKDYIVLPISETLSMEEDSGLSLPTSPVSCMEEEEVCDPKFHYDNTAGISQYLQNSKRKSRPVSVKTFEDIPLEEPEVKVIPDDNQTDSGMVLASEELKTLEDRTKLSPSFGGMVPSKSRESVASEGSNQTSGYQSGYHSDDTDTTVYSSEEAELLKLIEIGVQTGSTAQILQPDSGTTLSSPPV

Compound | IC50 [1] [µM] | inhibition at 10 µM ([2]; Homo sapiens) [%] | IC50 ([2]; Homo sapiens) [µM] | IC50 [2] [µM]
O=C1Nc2ccc(F)cc2C1=CNc1ccc2[nH]ccc2c1 [Example 162, 5-Fluoro-3-[(1 h-indol-5-ylamino)-methylene]-1,3-dihydro-indol-2-one] | 0.3 | 89.9 | 1.05 | –
O=C1Nc2ccc(F)cc2C1=CNc1ccc2cn[nH]c2c1 [Example 163, 5-Fluoro-3-[(1 h-indazol-6-ylamino)-methylene]-1,3-dihydro-indol-2-one] | 0.32 | 95.3 | ≤ 1 | 0.85
COc1ccc(NC=C2C(=O)Nc3ccc(F)cc32)cc1O [Example 164, 5-Fluoro-3-[(3-hydroxy-4-methoxy-phenylamino)-methylene]-1,3-dihydro-indol-2-one] | 0.38 | 98.8 | – | –
CN1CCN(c2ccc(NC=C3C(=O)Nc4ccc(F)cc43)cc2)CC1 [Example 168, 5-Fluoro-3-{[4-(4-methyl-piperazin-1-yl)-phenylamino]-methylene}-1,3-dihydro-indol-2-one] | 0.14 | 94.3 | – | –
O=C1Nc2ccc(F)cc2C1=CNc1ccccc1 [Example 169, 5-Fluoro-3-phenylaminomethylene-1,3-dihydro-indol-2-one] | 0.61 | 93.4 | 1.16 | –
COc1ccc(NC=C2C(=O)Nc3ccc(F)cc32)cc1F [Example 172, 5-Fluoro-3-[(3-fluoro-4-methoxy-phenylamino)-methylene]-1,3-dihydro-indol-2-one] | 0.69 | 93.3 | 1.4 | –
O=C1Nc2ccc(F)cc2C1=CNc1ccc2ncsc2c1 [Example 173, 3-(Benzothiazol-6-ylaminomethylene)-5-fluoro-1,3-dihydro-indol-2-one] | 0.52 | 94.5 | 1.48 | –
O=C(O)CCc1cccc(NC=C2C(=O)Nc3ccc(F)cc32)c1 [Example 175, 3-{3-[(5-Fluoro-2-oxo-1,2-dihydro-indol-3-ylidenemethyl)-amino]-phenyl}-propionic acid] | 0.71 | 38 | – | –
CCc1cccc(NC=C2C(=O)Nc3ccc(F)cc32)c1 [Example 176, 3-[(3-Ethyl-phenylamino)-methylene]-5-fluoro-1,3-dihydro-indol-2-one] | 0.8 | 67.9 | 2.54 | –
O=C1Nc2ccc(F)cc2C1=CNc1cccc(O)c1 [Example 177, 5-Fluoro-3-[(3-hydroxy-phenylamino)-methylene]-1,3-dihydro-indol-2-one] | 0.75 | 98.2 | ≤ 1 | 0.74

Further lines, with some results ahead:

IC50 [1] [µM] | Compound | inhibition at 10 µM ([2]; Homo sapiens) [%] | IC50 ([2]; Homo sapiens) [µM] | IC50 [2] [µM]
0.36 | O=C(O)CCc1ccc(NC=C2C(=O)Nc3ccc(F)cc32)cc1 [Example 165, 3-{4-[(5-Fluoro-2-oxo-1,2-dihydro-indol-3-ylidenemethyl)-amino]-phenyl}-propionic acid] | 99.3 | 1.34 | –
0.66 | NS(=O)(=O)c1ccc(NC=C2C(=O)Nc3ccc(F)cc32)cc1 [Example 166, 4-[(5-Fluoro-2-oxo-1,2-dihydro-indol-3-ylidenemethyl)-amino]-benzenesulfonamide] | 49.2 | – | –
0.41 | NC(=O)c1ccc(NC=C2C(=O)Nc3ccc(F)cc32)cc1 [Example 170, 4-[(5-Fluoro-2-oxo-1,2-dihydro-indol-3-ylidenemethyl)-amino]-benzamide] | 96.7 | ≤ 1 | 0.59
0.43 | CSc1ccc(NC=C2C(=O)Nc3ccc(F)cc32)cc1 [Example 171, 5-Fluoro-3-[(4-methylsulfanyl-phenylamino)-methylene]-1,3-dihydro-indol-2-one] | 38.1 | – | –
0.84 | O=C(O)Cc1ccc(NC=C2C(=O)Nc3ccc(F)cc32)cc1 [Example 174, {4-[(5-Fluoro-2-oxo-1,2-dihydro-indol-3-ylidenemethyl)-amino]-phenyl}-acetic acid] | 76.4 | 6.02 | –
